Test results reported in US20090048214A1, “Methods for Treating Renal Tumors Using 2, 4-Pyrimidinediamine Drug and Prodrug Compounds” (RIGEL PHARMACEUTICALS, INC, priority 2006, published 2009).

How the values were obtained:
HL-60(TB) [1] = details: Leukemia, besylate salt
RPM1-8226 = details: RPM1-8226, Leukemia; besylate salt
NCI-H322M [2] = details: Non-Small Cell Lung Cancer, besylate salt
NCI-H460 [3] = details: NCI-H460, Non-Small Cell Lung Cancer; besylate salt
HCC-2998 [4] = details: HCC-2998, Colon Cancer; besylate salt
HCT-116 = details: HCT-116, Colon Cancer; besylate salt
HT29 [5] = details: HT29, Colon Cancer; besylate salt
KM12 = details: KM12, Colon Cancer; besylate salt
SW-620 [6] = details: SW-620, Colon Cancer; besylate salt
SF-295 = details: SF-295, CNS Cancer; besylate salt
SNB-19 = details: SNB-19, CNS Cancer; besylate salt
SNB-75 = details: SNB-75, CNS Cancer; besylate salt
U251 [7] = details: U251, CNS Cancer; besylate salt
LOX I MVI = details: Melanoma, besylate salt
HL-60(TB) [8] = test: cells; details: Homo sapiens
SK-MEL-2 [9] = details: SK-MEL-2, Melanoma; besylate salt
OVCAR-4 = details: OVCAR-4, Ovarian Cancer; besylate salt
OVCAR-5 = details: OVCAR-5, Ovarian Cancer; besylate salt
RXF 393 [10] = details: RXF 393, Renal Cancer; besylate salt
PC-3 [11] = details: PC-3, Prostate Cancer; besylate salt
DU-145 = details: DU-145, Prostate Cancer; besylate salt
T-47D = details: Breast Cancer, besylate salt
SR = test: cells; details: Homo sapiens
A549/ATCC = test: cells; details: Homo sapiens, A549, read-out: LC50
NCI-H322M [12] = test: cells; details: Homo sapiens
NCI-H460 [13] = test: cells; details: Homo sapiens, NCI-H460, read-out: LC50
HCC-2998 [14] = test: cells; details: Homo sapiens
HCT-15 = test: cells; details: Homo sapiens, HCT-15, read-out: LC50
HT29 [15] = test: cells; details: Homo sapiens
SW-620 [16] = test: cells; details: Homo sapiens, SW-620, read-out: LC50
U251 [17] = test: cells; details: Homo sapiens, U-251, read-out: LC50
SK-MEL-2 [18] = test: cells; details: Homo sapiens
OVCAR-3 = test: cells; details: Homo sapiens
OVCAR-8 = test: cells; details: Homo sapiens
786-0 = test: cells; details: Homo sapiens
RXF 393 [19] = test: cells; details: Homo sapiens
PC-3 [20] = test: cells; details: Homo sapiens
MCF7 = test: cells; details: Homo sapiens
MDA-MB-231/ATCC = test: cells; details: Homo sapiens, MDA-MB-231, read-out: LC50

COc1cc(Nc2ncc(F)c(Nc3ccc4c(n3)NC(=O)C(C)(C)O4)n2)cc(OC)c1OC [Compound 1]
TGI (HL-60(TB) [1]): >1.00E−4 | TGI (RPM1-8226): >1.00E−4 | TGI (NCI-H322M [2]): >1.00E−4 | TGI (NCI-H460 [3]): >1.00E−4 | TGI (HCC-2998 [4]): >1.00E−4 | TGI (HCT-116): >1.00E−4 | TGI (HT29 [5]): >1.00E−4 | TGI (KM12): >1.00E−4 | TGI (SW-620 [6]): >1.00E−4 | TGI (SF-295): >1.00E−4 | TGI (SNB-19): >1.00E−4 | TGI (SNB-75): >1.00E−4 | TGI (U251 [7]): >1.00E−4 | TGI (LOX I MVI): 1.13E−6 | IC50 (HL-60(TB) [8]; HL-60, read-out: G150): > 100 µM | CC50 (HL-60(TB) [8]; HL-60, read-out: LC50): > 100 µM | TGI (SK-MEL-2 [9]): >1.00E−4 | TGI (OVCAR-4): >1.00E−4 | TGI (OVCAR-5): >1.00E−4 | TGI (RXF 393 [10]): 7.74E−7 | TGI (PC-3 [11]): >1.00E−4 | TGI (DU-145): >1.00E−4 | TGI (T-47D): >1.00E−4 | IC50 (SR; read-out: G150): 3.56 µM | CC50 (SR; read-out: LC50): > 100 µM | CC50 (A549/ATCC): > 100 µM | IC50 (NCI-H322M [12]; read-out: G150): > 100 µM | CC50 (NCI-H322M [12]; read-out: LC50): > 100 µM | CC50 (NCI-H460 [13]): > 100 µM | IC50 (HCC-2998 [14]; HCC 2998, read-out: G150): > 100 µM | CC50 (HCC-2998 [14]; HCC 2998, read-out: LC50): > 100 µM | CC50 (HCT-15): > 100 µM | IC50 (HT29 [15]; HT-29, read-out: G150): 2.19 µM | CC50 (HT29 [15]; HT-29, read-out: LC50): > 100 µM | CC50 (SW-620 [16]): > 100 µM | CC50 (U251 [17]): > 100 µM | IC50 (SK-MEL-2 [18]; SK-MEL-2, read-out: G150): > 100 µM | CC50 (SK-MEL-2 [18]; SK-MEL-2, read-out: LC50): > 100 µM | IC50 (OVCAR-3; OVCAR-3, read-out: G150): > 100 µM | CC50 (OVCAR-3; OVCAR-3, read-out: LC50): > 100 µM | IC50 (OVCAR-8; OVCAR-8, read-out: G150): > 100 µM | CC50 (OVCAR-8; OVCAR-8, read-out: LC50): > 100 µM | IC50 (786-0; 786-0, read-out: G150): 0.873 µM | CC50 (786-0; 786-0, read-out: LC50): > 100 µM | IC50 (RXF 393 [19]; RXF 393, read-out: G150): 0.196 µM | CC50 (RXF 393 [19]; RXF 393, read-out: LC50): > 100 µM | IC50 (PC-3 [20]; PC-3, read-out: G150): 3.07 µM | CC50 (PC-3 [20]; PC-3, read-out: LC50): > 100 µM | IC50 (MCF7; MCF7, read-out: G150): 2.72 µM | CC50 (MCF7; MCF7, read-out: LC50): > 100 µM | CC50 (MDA-MB-231/ATCC): > 100 µM
